According to patent US4759880A, “Alkanoarachidonic acids” (Research Corporation, priority 1984, dated 1988):

Assays:
5-lipoxygenase = target: T1, 5-lipoxygenase (Rattus norvegicus, UniProt P12527); experiment: Inhibition of conversion of 14C-AA to 14C-5-HETE in supernatant from RBL-1 cells; type: biochemical
T1 construct: super natant from RBL-1 cells; endogenous in cells; host or cells: RBL-1 cells (supernatant)
T1 sequence (P12527 1-673): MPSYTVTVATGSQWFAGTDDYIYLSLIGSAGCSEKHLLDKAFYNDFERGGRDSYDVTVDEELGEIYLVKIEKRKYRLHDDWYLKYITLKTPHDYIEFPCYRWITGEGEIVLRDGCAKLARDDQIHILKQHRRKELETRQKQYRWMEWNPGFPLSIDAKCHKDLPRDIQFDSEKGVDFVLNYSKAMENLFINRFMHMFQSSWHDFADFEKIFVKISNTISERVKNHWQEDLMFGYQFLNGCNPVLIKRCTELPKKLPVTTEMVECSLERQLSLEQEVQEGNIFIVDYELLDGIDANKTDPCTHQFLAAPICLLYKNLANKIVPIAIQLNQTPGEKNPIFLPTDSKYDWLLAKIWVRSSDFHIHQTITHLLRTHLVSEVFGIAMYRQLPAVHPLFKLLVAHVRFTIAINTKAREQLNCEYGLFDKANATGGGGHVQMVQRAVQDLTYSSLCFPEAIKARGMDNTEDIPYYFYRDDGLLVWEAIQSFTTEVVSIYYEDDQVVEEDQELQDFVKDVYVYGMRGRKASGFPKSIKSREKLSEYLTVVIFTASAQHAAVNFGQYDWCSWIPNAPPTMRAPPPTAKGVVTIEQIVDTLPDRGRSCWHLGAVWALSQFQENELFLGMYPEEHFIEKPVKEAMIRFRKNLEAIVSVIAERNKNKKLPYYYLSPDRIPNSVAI
From the text: (§1) Biological studies to define the profiles of these compounds reveal interesting and selective properties including, in vitro inhibition of SRS-A biosynthesis, 5-lipoxygenase inhibition, phospholiphase A2 inhibition and antithrombotic activity.

[1] = test system: human gel-filtered platelet suspension; experiment: Inhibition of AA-induced platelet aggregation; type: cell-based; details: human gel-filtered platelet suspension containing 0.2% albumin
From the text: as §1

- inhibition at 100 µM (5-lipoxygenase): 86%
SMILES: CCCCC/C=C\C/C=C\C/C=C\C1(/C=C\CCCC(=O)O)CC1 [compound 1]
- inhibition at 80 µM [1]: 50%
